Columns and labels:
[1] = test system: firefly luciferase protein in livers and spleens; experiment: Bioluminescence assay of expressed firefly luciferase in liver and spleen (biodistribution analysis); type: in vivo; conditions: female CD-1 mice, single 200 μg i.v. dose of encapsulated FFL mRNA, 4 hours post-injection
Method: (§1) All studies were performed using female CD-1 mice of approximately 3-weeks age at the beginning of each experiment. Samples were introduced by a single bolus tail-vein injection of an equivalent total dose of 200 μg of encapsulated FFL mRNA. Four hours post-injection the mice were sacrificed and perfused with saline.
(§2) The liver and spleen of each mouse was harvested, apportioned into three parts, and stored in either, (i) 10% neutral buffered formalin, (ii) snap-frozen and stored at −80° C. for bioluminescence analysis (see below), or for in situ hybridization studies, or (iii) liver sections were isolated in isopentane (2-methylbutane) bath, maintained at −35° C., rinsed with 1×PBS, lightly patted with a kimwipe to remove any excess fluid, placed in the bath for approximately 5-7 minutes, after which the liver was removed, wrapped in foil and stored in a small sterile plastic bag at −80° C. until ready for assay.
The bioluminescence assay was conducted using a Promega Luciferase Assay System (Item # E1500 Promega). […]
The Luciferase Assay Reagent was prepared by adding 10 mL of Luciferase Assay Buffer to Luciferase Assay Substrate and mix via vortex. […] Each plate was inserted into the appropriate chambers using a Molecular Device Flex Station instrument and measure the luminescence (measured in relative light units (RLU)). […]

[2] = test system: codon-optimized firefly luciferase mRNA in liver; experiment: In situ hybridization of liver sections with 35S-labeled riboprobes; type: in vivo, CD-1 mice; conditions: livers of injected animals, 100× magnification, FIG. 4A
Method: as §1, §2
Slide preparation and analysis was performed as follows: Each liver was frozen at −35° C. according to the procedure described above. The frozen livers were cut into 6 micrometer sections and mounted onto glass microscope slides. […]
Photographic development was carried out in Kodak D-19. Sections were counterstained lightly with cresyl violet and analyzed using brightfield and darkfield microscopy. […]

[3] = test system: firefly luciferase protein in hepatocytes; experiment: Immunohistochemical analysis of liver with anti-firefly antibody; type: in vivo; conditions: FFL mRNA in lipid transfer vehicle of cholesterol, DOPE, DLinDMA and DMG-PEG2000; treated mice, FIGS. 5B and 5C
Excerpt: FIG. 5 illustrates immunohistochemical staining of mouse livers for the detection of firefly luciferase protein. […] Luciferase protein is observed throughout the cytoplasm of the hepatocytes. The abbreviations (S) and (H) correspond to sinusoidal cells and hepatocytes, respectively.
The FFL mRNA was packaged and delivered via a lipid transfer vehicle formulation consisting of cholesterol, DOPE, DLinDMA, and DMG-PEG2000 in a manner similar to that described supra.
The translation of the FFL mRNA into its respective protein has been successfully identified via immunohistochemical analysis (FIG. 5).

Compound | Luminescence / mRNA delivery in liver versus spleen [1] | Detection of FFL mRNA in liver, dark field illumination, antisense probe [2] | Detection of expressed firefly protein by immunohistochemistry [3]
CC(C)CCCC(C)C1CCC2C3CC=C4CC(OC(=O)CCc5cnc[nH]5)CCC4(C)C3CCC12C [ICE, (3S,10R,13R,17R)-10,13-dimethyl-17-((R)-6-methylheptan-2-yl)-2,3,4,7,8,9,10,11,12,13,14,15,16,17-tetradecahydro-1H-cyclopenta[a]phenanthren-3-yl 3-(1H-imidazol-4-yl)propanoate] | enriched delivery of mRNA to liver versus spleen |  | 
FFL mRNA: Codon-optimized firefly luciferase messenger RNA, SEQ ID NO: 1, with 5′ Cap1 and 3′ poly(A) tail of approximately 200 nucleotides |  | detected as bright spots | can be observed in the hepatocytes of treated mice

— patent publication US10576166B2, “Liver specific delivery of messenger RNA” (TRANSLATE BIO, INC., priority 2009, dated 2020)
